Laboratory results published in article PMC8961551, “Potential Anticancer Agents against Melanoma Cells Based on an As-Synthesized Thiosemicarbazide Derivative” (Biomolecules, 2022).
Like-named read-outs stand apart in the source and are kept apart here.

Columns and labels:
[1] = tested on: BJ normal fibroblast cell line; assay: MTT cytotoxicity, BJ normal fibroblasts; format: cell-based, human; conditions: MTT test, 24 h treatment, BJ normal fibroblasts, concentration range 10-250 µM, read-out: IC50 BJ
Method: (§1) Biological studies were performed on human malignant melanoma G-361 (ATCC CRL-1424) cell lines and human fibroblast BJ (ATCC® CRL-2522™) cell lines purchased from the American Type Culture Collection (ATCC, Manassas, VA USA). The G-361 cell lines were maintained in McCoy’s medium (Corning, NY, USA), and the fibroblast BJ cell line was cultured in EMEM (Corning, NY, USA). All media were supplemented with 10% heat-inactivated fetal bovine serum (PAN-Biotech, Aidenbach, Germany), 100 U/mL penicillin, 100 μg/mL streptomycin and 0.25 μg/mL amphotericin B (Sigma-Aldrich, St. Louis, MO, USA). Cultures were maintained at 37 °C in a humidified atmosphere of 95% air and 5% CO2. The experiments were performed using cells from passage 5 to 10.
(§2) The cytotoxicity of the new compounds was evaluated against both the G-361 and BJ cell lines. Cells were seeded into 96-well plates at a density of 3 × 10^4 cells/well and 2 × 10^4 cells/well. After 24 h of incubation, when 70–80% confluence was reached, the culture medium was removed and replaced with the fresh one containing the tested compounds in the concentration range of 10, 25, 50, 75, 100, 125 and 250 μM. Cells were cultured at 37 °C in the presence of 5% air with CO2 for another 24 h. The cytotoxicity of the test compounds was evaluated by the MTT colorimetric assay, based on the ability of live cells to convert yellow soluble tetrazolium salts (3-[4,5-dimethylthiazol-2-yl]- 2,5-diphenyltetrazolium bromide, MTT) to purple insoluble formazan by cellular dehydrogenase. After 24 h of incubation with solutions of the test compounds, 4 mg/mL MTT solution (Thermo Scientific, Waltham, MA, USA) was added to the cell cultures and incubation was continued for 4 h at 37 °C. The MTT medium was then removed, and the resulting crystals were dissolved in 200 µL of DMSO. The solution was measured for absorbance at 570 nm using a Power Wave xs spectrophotometric plate reader, BioTek Instruments (Winooski, VT, USA). The experiment was performed three times with three replicates for each concentration. IC50 values were determined using the AAT Bioquest IC50 calculator.

G-361 melanoma = assay: MTT cytotoxicity, G-361 melanoma; format: cell-based, human; conditions: for IC50: MTT test, 24 h treatment, G-361 melanoma; for cytotoxic to melanoma cells (MTT test): G-361, concentration range used
Method: as §1, §2

RP-TLC lipophilicity = format: physicochemical; conditions: for RMW (chromatographic lipophilicity parameter): RP-18 plates, methanol-water 65-95%, extrapolated to 0% methanol; for -S TLC (slope of linear equation): Table S3
Method: RP-TLC analysis was performed using RP-18 TLC silica gel 60 F254 plates (10 × 20 cm, Merck, Darmstadt, Germany) with a DS-II chromatographic horizontal chamber (CHROMDES, Lublin, Poland). The mobile phase consisted of methanol (POCH, Gliwice, Poland) and water with the following concentrations of methanol: 65–95% (%, v/v), with a concentration change every 5%. After drying, the spots were observed under a UV lamp with a wavelength of 254 nm.

RP-HPLC lipophilicity = format: physicochemical; conditions: for logkW (chromatographic lipophilicity parameter): Kinetex C18, methanol-water 55-80%, extrapolated to 0% methanol; for -S HPLC (slope of linear equation): Table S3
Method: RP-HPLC analysis was performed using a Merck-Hitachi LaChrom Elite System (Merck, Darmstadt, Germany) with diode array detector L-2455, thermostat L-2300, pump L-2130 and autosampler L-2200 with a Kinetex C18 (5µm; 150 × 4,6mm) chromatographic column (Phenomenex, Torrance, USA) as the stationary phase. The mobile phase consisted of methanol (Merck, Darmstadt, Germany) and water (double-distilled), which was degassed by use of the built-in membrane degasser. Subsequently, 5 μL methanolic solution (0.1%; m/v) of the selected samples was applied to the chromatographic column by use of a Hitachi L-2200 autosampler (LaChrom Elite, Hitachi-Merck, Darmstadt, Germany). The analysis was performed with a flow rate of 0.7 mL min^−1 in isocratic mode using various concentrations of organic modifier (methanol) in binary polar mobile phases; percentages of methanol in water were 55–80% (%, v/v) and changed by 5% per step. Chromatograms were detected at 254 nm and the temperature of the column was 25 °C. All experiments were repeated in triplicate and the final results were taken to be the arithmetic means. Dead time was measured using uracil (Calbiochem. Merck, Darmstadt, Germany).

Compound	IC50 [1] [µM]	IC50 (G-361 melanoma) [µM]	RMW (chromatographic lipophilicity parameter) (RP-TLC lipophilicity)	-S TLC (slope of linear equation) (RP-TLC lipophilicity)	IC50 ([1]; Homo sapiens, Fibroblast) [µM]	IC50 (G-361 melanoma; Homo sapiens) [µM]	logkW (chromatographic lipophilicity parameter) (RP-HPLC lipophilicity)	-S HPLC (slope of linear equation) (RP-HPLC lipophilicity)	cytotoxic to melanoma cells (MTT test) (G-361 melanoma)
1-[[2-(2,4-Dichlorophenoxy)acetyl]amino]-3-[4-[[[2-(2,4-dichlorophenoxy)acetyl]amino]carbamoylamino]phenyl]thiourea [PK13]	> 250	> 250	–	–	–	–	–	–	–
O=C(COc1ccc(Cl)cc1Cl)NNC(=S)Nc1ccccc1F [PK1, 1-(2,4-dichlorophenoxy)acetyl-4-(2-fluorophenyl)thiosemicarbazide]	–	–	2.6706	3.1923	> 250	> 250	3.4437	4.9238	–
O=C(COc1ccc(Cl)cc1Cl)NNC(=S)Nc1ccc([N+](=O)[O-])cc1 [PK3, 1-(2,4-dichlorophenoxy)acetyl-4-(4-nitrophenyl)thiosemicarbazide]	> 250	> 250	2.4459	2.9474	–	–	2.7667	3.8522	–
O=C(COc1ccc(Cl)cc1Cl)NNC(=S)Nc1cccc(I)c1 [PK4, 1-(2,4-dichlorophenoxy)acetyl-4-(3-iodophenyl)thiosemicarbazide]	> 250	> 250	–	–	–	–	–	–	–
O=C(COc1ccc(Cl)cc1Cl)NNC(=S)Nc1ccc(F)cc1 [PK5, 1-(2,4-dichlorophenoxy)acetyl-4-(4-fluorophenyl)thiosemicarbazide]	> 250	> 250	2.7612	3.4335	–	–	3.8993	5.5119	–
O=C(COc1ccc(Cl)cc1Cl)NNC(=S)Nc1ccc(I)cc1 [PK7, 1-(2,4-dichlorophenoxy)acetyl-4-(4-iodophenyl)thiosemicarbazide]	–	–	3.8527	4.4553	216 ± 76	99 ± 4	4.5363	5.9005	cytotoxic
O=C(COc1ccc(Cl)cc1Cl)NNC(=S)Nc1cccc(Br)c1 [PK8, 1-(2,4-dichlorophenoxy)acetyl-4-(3-bromophenyl)thiosemicarbazide]	> 250	> 250	–	–	–	–	–	–	–
O=C(COc1ccc(Cl)cc1Cl)NNC(=S)Nc1cccc(F)c1 [PK10, 1-(2,4-dichlorophenoxy)acetyl-4-(3-fluorophenyl)thiosemicarbazide]	223 ± 7	218 ± 5.34	–	–	–	–	–	–	cytotoxic
O=C(COc1ccc(Cl)cc1Cl)NNC(=S)Nc1ccccc1Br [PK11, 1-(2,4-dichlorophenoxy)acetyl-4-(2-bromophenyl)thiosemicarbazide]	217 ± 64.3	162 ± 2	2.7832	3.3663	–	–	3.93	5.3438	cytotoxic
O=C(COc1ccc(Cl)cc1Cl)NNC(=S)Nc1ccc(Br)cc1 [PK12, 1-(2,4-dichlorophenoxy)acetyl-4-(4-bromophenyl)thiosemicarbazide]	189 ± 7	–	3.5706	4.1984	–	–	4.3897	5.8565	cytotoxic
